Patent publication US9447083B2, “N-acylhydrazone derivatives for selective T cell inhibitor and anti-lymphoid malignancy drug” (CHONG KUN DANG PHARMACEUTICAL CORP., priority 2012, dated 2016)

Tests used:
[1] = system: Jurkat T cells; experiment: Pro-apoptotic activity on Jurkat T cells (FITC-Annexin V / 7-AAD flow cytometry); type: cell-based; details: Homo sapiens, 72 hours, cells stained with FITC-Annexin V and 7-AAD among total cells, read-out: Cell Apoptosis Effect to Jurkat T Cell (% in 5 μM)
Summary of the method: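 Jurkat cells at 1.5×10^5 cells/mL in RPMI/10% FBS treated with compounds at […] or 5 μM final for 72 h at 37° C, vehicle containing 1% DMSO. Stained with FITC-Annexin V and 7-AAD for 15 min at room temperature in pH 7.4 Hepes binding buffer. Apoptosis = % double-stained cells by flow cytometry.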

[2] = system: Jurkat; experiment: Apoptosis of lymphoid malignancy cell lines (Annexin V / 7-AAD): Jurkat; type: cell-based; details: Homo sapiens, Acute T cell leukemia, 24 hours, read-out: Administration Dose (mean ± SD, μmol/L) Lethal Dose 50 (Apoptosis)
Experimental: (§1) Each of the acute T cell leukemia cell lines Jurkat, Molt4 and CCRF-CEM, the acute B cell leukemia cell line Raji and the […] cell lines KMS11, KMS12BM, KMS26, KMS28BM, and IM9 was re-suspended in 10% FBS-containing RPMI medium at a concentration of 1.5×10^5 cells/mL, and 200 μL of each of the cell suspensions was cultured in a flat bottom 96-well plate (Costar). The acute NK cell lymphoma cell line NK-92MI was re-suspended in α-MEM medium (supplemented with 20% FBS, 1×MEM vitamine solution, 50 μM 2-mercaptoethanol and 1× penicillin/streptomycin) at a concentration of 1.5×10^5 cells/mL, and 200 μL of the cell suspension was cultured in a flat bottom 96-well plate. The cells in each well was treated with 10 μL of each of 0.1, 0.25, 0.5, 0.75 and 1 μM of the compound diluted with RPMI medium, followed by that the cells were incubated in a 5% CO2 incubator at 37° C. for 24 hours. In a vehicle control group, cells were treated with 10 μL of medium containing 0.05% dimetylsulfoxide (DMSO, Sigma).
(§2) The cells were collected, and then the apoptosis thereof was analyzed by a flow cytometer after staining with Annexin V-7-AAD. The incubated cells were collected, placed in a 5-mL FACS tube (BD Falcon) and washed with 1 mL of fluorescence activated cell sorting (FACS) buffer (1%. FBS and 0.1% sodium azaide in PBS). The cells were re-suspended in 0.1 mL of FACS buffer, followed by that the cells were treated and stained with phycoerythrin-Annexin V at room temperature for 10 minutes. After 10 minutes of staining, the cells were treated and stained with 7-AAD at room temperature for 5 minutes. The stained cells were suspended in 0.3 mL of FACS buffer, and then analyzed by a flow cytometer. […] Thus, compounds 065, 108, 229 and 457 of the present invention can be used as a novel anti-lymphoid malignancy drug.

[3] = system: Molt4; experiment: Apoptosis of lymphoid malignancy cell lines: Molt4; type: cell-based; details: Homo sapiens, MOLT-4; Molt4, Acute T cell leukemia, 24 hours; read-out: Administration Dose (mean ± SD, μmol/L) Lethal Dose 50 (Apoptosis)
Experimental: as §1, §2

[4] = system: IM9; experiment: Apoptosis of lymphoid malignancy cell lines: IM9; type: cell-based; details: Homo sapiens, IM-9; IM9, Multiple myeloma, 24 hours; read-out: Administration Dose (mean ± SD, μmol/L) Lethal Dose 50 (Apoptosis)
Experimental: as §1, §2

[5] = system: KMS11; experiment: Apoptosis of lymphoid malignancy cell lines: KMS11; type: cell-based; details: Homo sapiens, KMS-11; KMS11, Multiple myeloma, 24 hours; read-out: Administration Dose (mean ± SD, μmol/L) Lethal Dose 50 (Apoptosis)
Experimental: as §1, with “In a vehicle control group, cells were treated with 10 μL of medium containing 0.05% dimetylsulfoxide (DMSO, Sigma).” left out
(§3) The cells were collected, and then the apoptosis thereof was analyzed by a flow cytometer after staining with Annexin V-7-AAD. The incubated cells were collected, placed in a 5-mL FACS tube (BD Falcon) and washed with 1 mL of fluorescence activated cell sorting (FACS) buffer (1%. FBS and 0.1% sodium azaide in PBS). […] The stained cells were suspended in 0.3 mL of FACS buffer, and then analyzed by a flow cytometer. […]

[6] = system: KMS12BM; experiment: Apoptosis of lymphoid malignancy cell lines: KMS12BM; type: cell-based; details: Homo sapiens, KMS-12-BM, Multiple myeloma, 24 hours, read-out: Administration Dose (mean ± SD, μmol/L) Lethal Dose 50 (Apoptosis)
Experimental: as §1, with “In a vehicle control group, cells were treated with 10 μL of medium containing 0.05% dimetylsulfoxide (DMSO, Sigma).” left out
as §3

[7] = system: KMS26; experiment: Apoptosis of lymphoid malignancy cell lines: KMS26; type: cell-based; details: KMS-26; KMS26, Multiple myeloma, 24 hours; read-out: Administration Dose (mean ± SD, μmol/L) Lethal Dose 50 (Apoptosis)
Experimental: as §1, with “In a vehicle control group, cells were treated with 10 μL of medium containing 0.05% dimetylsulfoxide (DMSO, Sigma).” left out
as §3

[8] = system: KMS28BM; experiment: Apoptosis of lymphoid malignancy cell lines: KMS28BM; type: cell-based; details: KMS-28BM, Multiple myeloma, 24 hours, read-out: Administration Dose (mean ± SD, μmol/L) Lethal Dose 50 (Apoptosis)
Experimental: as §1, with “In a vehicle control group, cells were treated with 10 μL of medium containing 0.05% dimetylsulfoxide (DMSO, Sigma).” left out
as §3

[9] = system: CCRF-CEM; experiment: Apoptosis of lymphoid malignancy cell lines: CCRF-CEM; type: cell-based; details: Homo sapiens, Acute T cell leukemia, 24 hours, read-out: Administration Dose (mean ± SD, μmol/L) Lethal Dose 50 (Apoptosis)
Experimental: as §1, with “In a vehicle control group, cells were treated with 10 μL of medium containing 0.05% dimetylsulfoxide (DMSO, Sigma).” left out
as §3

[10] = system: Raji; experiment: Apoptosis of lymphoid malignancy cell lines: Raji; type: cell-based; details: Homo sapiens, Acute B cell leukemia, 24 hours, read-out: Administration Dose (mean ± SD, μmol/L) Lethal Dose 50 (Apoptosis)
Experimental: as §1, with “In a vehicle control group, cells were treated with 10 μL of medium containing 0.05% dimetylsulfoxide (DMSO, Sigma).” left out
as §3

[11] = system: NK-92MI; experiment: Apoptosis of lymphoid malignancy cell lines: NK-92MI; type: cell-based; details: Acute NK cell lymphoma, 24 hours, read-out: Administration Dose (mean ± SD, μmol/L) Lethal Dose 50 (Apoptosis)
Experimental: as §1, with “In a vehicle control group, cells were treated with 10 μL of medium containing 0.05% dimetylsulfoxide (DMSO, Sigma).” left out
as §3

[12] = system: Experimental Autoimmune Encephalomyelitis (EAE); experiment: Experimental Autoimmune Encephalomyelitis (EAE) model of multiple sclerosis; type: in vivo, mouse; details: 1 mg/kg orally daily from 17 to 37 days
Experimental: At the first day of induction, myelin oligodendrocyte glycoprotein35-55 (MOG35-55, Peptron) (200 ug), mycobacterium tuberculosis (Difco, Cat No. 231141) (500 μg) and complete Freund's adjuvant (Sigma Aldrich, Cat No. F5506) were mixed with each other and immersed for 5 minutes. 0.1 mL of the immersed peptide was injected subcutaneously into both the flanks of each of C57BL/6 mice (9 week old, female, 18±2 g), followed by that […] pertussis toxin (Sigma Aldrich, Cat No. P2980) (200 ng) was injected by intravenously. At 2 days, the same amount of pertussis toxin was administered intravenously. Whether the immersion leaked from the injected portion of the mice was checked, and whether EAE was induced was also examined by visual observation from 7 days.
Compound 229 and Fingolimod that is currently clinically used for the treatment of multiple sclerosis were completely dissolved in a Cremophor EL-ethanol mixture (1:1, v/v) in an amount corresponding to 7.5% (v/v) of the administration volume, and the compound solution was diluted in PBS. The two groups of the mice were administered orally with 200 μL of the diluted solution of compound 229 at each doses of 25 and 50 mg/kg separately, and the third group of the mice was administered orally with 200 μL of the diluted solution of fingolimode at a dose of 1 mg/kg on a daily basis from 17 days to 37 days (for total 21 times) after starting of the experiment. In a vehicle control group, 200 μL of a Cremophor EL-ethanol-PBS mixture (3.75:3.75:92.5, v/v/v) was administered to each mouse in the same manner as the treated group. The index of EAE was recorded daily based on visual observation using a severity index system (6-point (0 to 5) scale) from 7 days of the experiment. The symptoms of multiple sclerosis were evaluated based on the following criteria:
2: limp tail and hind limb weakness;
4: hind limb paralysis and forelimb weakness; and […]

[13] = system: acute graft-versus-host disease; experiment: Acute graft-versus-host disease, mouse model of allogeneic bone marrow transplantation; type: in vivo; details: 25 mg/kg intraperitoneally daily for 10 days
Text: Lymph nodes, spleens, both femurs and tibias were aseptically collected from normal C57BL/6 mice (8-12 week old, female, 20-23 g), and T cells were isolated from the lymph nodes and spleens in the same manner as described in Experimental Example 2 and were re-suspended in PBS at a concentration of 8×10^7 cells/mL. The femurs and tibias were cut at the ends, and the bone marrow was flushed from femurs and tibias with RPMI medium using a syringe (21G for femur and 26G for tibia) to extract the marrow, which was then suspended and passed through a cell strainer to make a single cell suspension. The bone marrow cell suspension was centrifuged at 1200 rpm for 5 minutes, and the supernatant was removed, then the cells were added to 1 mL of ACK lysis buffer and vortexed for 1 minute, followed by washing with RPMI medium. […] The incubated cell suspension was added with 5 mL of MACS buffer, centrifuged for 5 minutes, washed, and then re-suspended in 2 mL of MACS buffer. The suspended cells were placed in the autoMACS Pro Separator, and T cells bound to the CD90.2 microbeads were removed. The separated T cell-depleted bone marrow cells (TCD-BM) were washed with PBS and re-suspended in PBS at a concentration of 1×10^8 cells/mL. Normal BDF1 mice (10-12 week old, female, 20-23 g) were irradiated with 850 rad of γ radiation using an irradiator, and then 100 μL of a graft obtained by mixing the C57BL/6 mouse T cells and the TCD-BM at a ratio of 1:1 was injected into the tail vein of the BDF1 mice. In a group treated with compound 229 of the present invention, compound 229 was completely dissolved in a Cremophor EL-ethanol mixture (1:1, v/v) in an amount corresponding to 15% (v/v) of the administration volume, after which the compound solution was diluted in PBS, and the dilution was administered intraperitoneally to each mouse at a dose of 25 mg/kg daily for 10 days from the day of the graft injection. Meanwhile, Tacrolimus that is a currently clinically used immunosuppressive agent was administered to mice of another group in the same amount as compound 229 in order to compare the inhibitory effect on acute graft-versus-host disease, and mice of a vehicle control group were administered with 200 μL of a Cremophor EL-ethanol-PBS (7.5:7.5:85, v/v/v) in the same manner as the treated groups. Then, the survival of mice was monitored daily, and the severity of GVHD was assessed twice a week with clinical GVHD scoring system for each a decrease in weight loss, hunched posture, decreased activity, fur ruffling and skin lesions. Each parameters were scored on a 3-point (0 to 2) scale.

With `Cc1cc(C)c(OCC(=O)N/N=C/c2cccc3[nH]ccc23)c(C)c1` [Compound 065, (E)-N′-((1H-indol-4-yl)methylene)-2-(mesityloxy)acetohydrazide] the cytotoxicity at 5 µM [1] was 100%, the EC50 [2] was 0.79 ± 0.01 µmol/L and the EC50 [3] was 1.58 ± 0.03 µmol/L. The EC50 [4] was 1.21 ± 0.01 µmol/L.
Work on `Cc1cc(C)c(OCC(=O)N/N=C/c2ccc3cc[nH]c3c2)c(C)c1` [Compound 108, (E)-N′-((1H-indol-6-yl)methylene)-2-(mesityloxy)acetohydrazide] yielded a cytotoxicity at 5 µM [1] of 100%, an EC50 [2] of 0.78 ± 0.04 µmol/L and an EC50 [3] of 1.38 ± 0.04 µmol/L. The EC50 [4] was 1.41 ± 0.03 µmol/L.
For `Cc1cc(C)c(OCC(=O)N/N=C/c2ccc3cc[nH]c3c2)c(C2CCOCC2)c1` [Compound 457, (E)-N′-((1H-indol-6-yl)methylene)-2-(2,4-dimethyl-6-(tetrahydro-2H-pyran-4-yl)phenoxy)acetohydrazide], the cytotoxicity at 5 µM [1] was 100%, the EC50 [2] was 0.2 ± 0.01 µmol/L and the EC50 [3] was 0.25 ± 0.11 µmol/L. For the same compound, the EC50 [4] was 0.38 ± 0.01 µmol/L, the EC50 [5] was 0.63 ± 0.31 µmol/L and the EC50 [6] was 0.22 ± 0.02 µmol/L. It also gave an EC50 [7] of 0.55 ± 0.12 µmol/L, an EC50 [8] of 0.47 ± 0.06 µmol/L and an EC50 [9] of 0.17 µmol/L. The EC50 [10] was 0.68 ± 0.05 µmol/L and the EC50 [11] was 0.46 ± 0.01 µmol/L.
In the case of `CCCCCCCCc1ccc(CCC(N)(CO)CO)cc1` [Fingolimod, reference compound], the “severity index (EAE, 0 to 5 scale)” value ([12]; at 17 days (start of administration)) is reported as 3±1, the “severity index (EAE, 0 to 5 scale)” value ([12]; at 39 days, vehicle 2.5±0.75) is reported as 1.5±0.5 and the “severity index (EAE, 0 to 5 scale)” value ([12]; at 101 days, vehicle 2.33±0.25) is reported as 2.7±0.25.
`C=CC[C@@H]1/C=C(\C)C[C@H](C)C[C@H](OC)[C@H]2O[C@@](O)(C(=O)C(=O)N3CCCC[C@H]3C(=O)O[C@H](/C(C)=C/[C@@H]3CC[C@@H](O)[C@H](OC)C3)[C@H](C)[C@@H](O)CC1=O)[C@H](C)C[C@@H]2OC` [Tacrolimus, reference compound] was tested, and the “severity of GVHD (clinical scoring system)” value [13] was “ruffled fur and severe skin lesions”, the survival rate ([13]; final (day 70), vehicle 10%) was 50% and the “mouse death, days after cell transplantation” value ([13]; vehicle from 29 days) was no less than 23 days.
